Measured values reported in patent publication US7053175B1, “Synthetic peptides useful in biological assays for detecting infections caused by group O HIV-1 viruses” (Bio-Rad Pasteur, priority 1997, dated 2006).

Assays:
[1] = test system: serum samples from patients infected with group O HIV-1 retroviruses; assay: Immunoenzymatic test: Test No. 2 (immunoreactivity with diluted sera); format: binding, human; conditions: solid phase peptide 2 μg/ml; for Number of samples: sera of Table V; for ABSORBANCE (OD): cyclized
From the text: The serum samples from patients infected with group O HIV-1 retroviruses were obtained by the Yaounde Pasteur Centre in Cameroon and were serotyped group O according to the serological algorithm described in AIDS (1977), 11, pp. 445-453. A genotyped sample (Maryland) is obtained from the United States. These samples were previously diluted in negative human serum at the dilutions given in Table V, in order to have a sufficient volume for the different immunoreactivity tests.
The synthetic peptides used were dissolved in water at a concentration of 1 mg/ml (stock solution). For the solid phase sensitization step (“coating”), the procedure was carried out as described for Example 2.
The serum samples were diluted 1/5 with a skimmed milk solution (citrate buffer supplemented with 0.01% of phenol red, 0.25% of chloroform and 0.25% of Kathon®), deposited in the wells of plates and incubated for 30 min at 40° C.
(§1) After washing with a Tris-NaCl buffer solution pH 7.4 containing 0.1% of Tween® 20 and 0.001% of sodium merthiolate, 100 μl of a solution of conjugate consisting of horseradish peroxidase-labelled anti-human IgG and IgM goat antibodies, containing as preservative 0.01% of sodium merthiolate, in solution in a citrate buffer solution supplemented with 30% glycerol and 25% normal foetal calf serum, were added to each well of the plates and then they were incubated for 30 min at 40° C.
After washing with a Tris-NaCl buffer solution pH 7.4 containing 0.1% of Tween® 20 and 0.001% of sodium merthiolate, the colour was developed as described in Example 2.
The relative absorbance (OD) (A490-A620) read in each well is proportional to the immunoreactivity of each peptide. It indicates the ability of each peptide to react with the biological sample with which the test is carried out.
The reactivity of the peptides of the invention, peptides No. 10 (14B), No. 11 (18B), No. 12 (19B), No. 14 (21B), No. 15 (22B), No. 16 (23B) all in cyclized form, was compared with that of three homologous synthetic peptides having, as sequence, a portion of the natural sequence of the envelope (env) of a group O HIV-1 retrovirus. These peptides are two peptides derived from the VAU isolate—the peptide VAU 22 AA and the peptide VAU 35 AA—and the peptide MVP 5180 (designated “MVP 5180” in Table V). The peptides VAU 22 AA and VAU 35 AA (whose structure is indicated in Example 2) and the peptide MVP 5180 comprise an immunodominant epitope of gp41.
All these peptides were used in cyclized form. The sequence of the MVP 5180 peptide is the following:
For each peptide tested, the samples were arranged into four classes (a, b, c and d) corresponding to various levels of relative absorbance read at the wavelengths A492-A620: • for a: OD<0.100, • for b: 0.100<OD<0.500, • for c: 0.500<OD<1.000, • for d: OD>1.000, thus making it possible to evaluate the degree of immunoreactivity of the peptides.

[2] = test system: sera from patients infected with group O HIV-1 retroviruses; assay: Immunoenzymatic test: Test No. 1 (immunoreactivity of peptides coated on microplates); format: binding, human; parameters: key to ABSORBANCE: >: signal greater than the reading capacity of the spectrophotometer; conditions: for ABSORBANCE: cyclized peptide 2 μg/ml
Method: The sera used ESS, DUR, VAU and HAD are sera from French patients infected with group O HIV-1 retroviruses. The other serum samples from patients infected with group O HIV-1 retroviruses were obtained by the Yaoundé Pasteur Centre in Cameroon and were serotyped group O according to the serological algorithm described in AIDS (1977), 11, pp 445-453.
The HIV-negative sera (n=48) were obtained from healthy volunteers.
The synthetic peptides used were dissolved in water at a concentration of 1 mg/ml (stock solution). For the solid phase sensitization step (coating), 110 μl of a solution at 2 μg/ml of each peptide (obtained by diluting the stock solution with 0.1 M carbonate buffer solution) were added to each well of the microtitre plates Microtiter™ (NUNC). After incubating overnight at room temperature, the microplates were first washed with a Tris-NaCl buffer solution pH 7.4 containing 0.1% of Tween® 20 and 0.001% sodium merthiolate, and then saturated with a PBS solution containing 0.5% of Régilait™ (dried skimmed milk). After aspirating the saturating solution, the plates were heated for 10 min at 50° C.
The serum samples were diluted 1/5 with a skimmed milk solution (citrate buffer supplemented with 0.01% of phenol red, 0.25% of chloroform and 0.25% of Kathon®), deposited in the wells of the plates and incubated for 30 min at 40° C.
as §1, with “each plate” for “each”, “well and then” for “well of”, “plates” for “plates and then they”
After washing with a Tris-NaCl buffer solution pH 7.4 containing 0.1% of Tween® 20 and 0.001% of sodium merthiolate, the colour was developed by adding, to each well, 100 μl of O-phenylenediamine in solution in hydrogen peroxide. The microplates were then incubated for 30 min at room temperature and in the dark. The coloured reaction was then stopped by addition of 100 μl of 4N sulphuric acid. The absorbance (A) was determined at 490 and 620 nm.
The relative absorbance (A490-A620) read in each well is proportional to the immunoreactivity of each peptide. It indicates the ability of each peptide to react with the biological sample with which the test is carried out. The cut-off value was determined as being an absorbance equal to 0.15. It corresponds to the mean of the negative values (n=48) plus 12 standard deviations.
The reactivity of the peptides of the invention (peptide No. 3 (4B), peptide No. 2 (3B) and peptide No. 1 (2B), all in cyclized form), was compared with that of two synthetic peptides having, as sequence, a portion of the natural sequence of the envelope (env) of the VAU isolate (group O HIV-1 retrovirus) and comprising an immunodominant epitope of gp41.
For the study, these peptides were used in cyclized form.

## ALETLLQNQQLLNIWGCRGRLVCYTSVRWNET [PEPTIDE No. 12 (19B)]
[1]; CLASS A (a: OD<0.100)
  Number of samples: 0
[1]; CLASS B (b: 0.100<OD<0.500)
  Number of samples: 11
[1]; CLASS C (c: 0.500<OD<1.000)
  Number of samples: 2
[1]; CLASS D (d: OD>1.000)
  Number of samples: 1
[1]; serum 258 OUDI at 1/100
  ABSORBANCE (OD): 0.226
[1]; serum 625 at 1/50
  ABSORBANCE (OD): 0.264
[1]; serum 3600 at 1/100
  ABSORBANCE (OD): 0.249
[1]; serum 3613 at ¼00
  ABSORBANCE (OD): 0.773
[1]; serum 3653 at 1/10
  ABSORBANCE (OD): 0.247
[1]; serum 4280 at 1/50
  ABSORBANCE (OD): 0.201
[1]; serum 6111 at 1/100
  ABSORBANCE (OD): 0.202
[1]; serum DJOU at 1/100
  ABSORBANCE (OD): 0.419
[1]; serum DO15 at 1/100
  ABSORBANCE (OD): 1.286
[1]; serum MBASSI at 1/100
  ABSORBANCE (OD): 0.747
[1]; serum Maryland at ¼00
  ABSORBANCE (OD): 0.285
[1]; serum NGO at 1/50
  ABSORBANCE (OD): 0.193
[1]; serum NJEM at 1/100
  ABSORBANCE (OD): 0.391
[1]; serum WANG at 1/50
  ABSORBANCE (OD): 0.124

## LLSLWGCRGRLVCYTSVQWNET [PEPTIDE No. 2 (3B)]
[2]; serum 134
  ABSORBANCE: >
[2]; serum 402
  ABSORBANCE: >
[2]; serum 625
  ABSORBANCE: >
[2]; serum 1062
  ABSORBANCE: >
[2]; serum 1105*
  ABSORBANCE: 1.031
[2]; serum 1581
  ABSORBANCE: >
[2]; serum 1702
  ABSORBANCE: >
[2]; serum 1754
  ABSORBANCE: >
[2]; serum 2294
  ABSORBANCE: >
[2]; serum 2312
  ABSORBANCE: >
[2]; serum 2313
  ABSORBANCE: >
[2]; serum 2352
  ABSORBANCE: >
[2]; serum 2551
  ABSORBANCE: >
[2]; serum 2700
  ABSORBANCE: 0.274
[2]; serum 3016
  ABSORBANCE: >
[2]; serum 3136
  ABSORBANCE: 0.992
[2]; serum 3235
  ABSORBANCE: >
[2]; serum 3236
  ABSORBANCE: >
[2]; serum 3302
  ABSORBANCE: >
[2]; serum 3482
  ABSORBANCE: >
[2]; serum 3529
  ABSORBANCE: >
[2]; serum 3600*
  ABSORBANCE: >
[2]; serum 3627*
  ABSORBANCE: >
[2]; serum 3637
  ABSORBANCE: >
[2]; serum 3653
  ABSORBANCE: >
[2]; serum 3771
  ABSORBANCE: >
[2]; serum 3884*
  ABSORBANCE: >
[2]; serum 3891
  ABSORBANCE: >
[2]; serum 3935
  ABSORBANCE: 0.893
[2]; serum 3945
  ABSORBANCE: >
[2]; serum 4021*
  ABSORBANCE: 0.119
[2]; serum 4288*
  ABSORBANCE: >
[2]; serum 4364
  ABSORBANCE: >
[2]; serum 4434
  ABSORBANCE: >
[2]; serum 4477
  ABSORBANCE: >
[2]; serum 4489*
  ABSORBANCE: >
[2]; serum 5149*
  ABSORBANCE: >
[2]; serum 5164
  ABSORBANCE: >
[2]; serum 5210
  ABSORBANCE: >
[2]; serum 5270*
  ABSORBANCE: >
[2]; serum 5373
  ABSORBANCE: >
[2]; serum 5453
  ABSORBANCE: 0.081
[2]; serum 5766*
  ABSORBANCE: >
[2]; serum 5931
  ABSORBANCE: >
[2]; serum 5969*
  ABSORBANCE: 0.282
[2]; serum 6111
  ABSORBANCE: >
[2]; serum 6165
  ABSORBANCE: >
[2]; serum 6198*
  ABSORBANCE: >
[2]; serum 6295*
  ABSORBANCE: 1.063
[2]; serum 6487
  ABSORBANCE: 1.017
[2]; serum 6512*
  ABSORBANCE: 0.785
[2]; serum 6627
  ABSORBANCE: >
[2]; serum 6689*
  ABSORBANCE: >
[2]; serum 6697
  ABSORBANCE: >
[2]; serum 6782
  ABSORBANCE: 2.091
[2]; serum 6891
  ABSORBANCE: 0.614
[2]; serum 6976*
  ABSORBANCE: >
[2]; serum 6998
  ABSORBANCE: >
[2]; serum 7007
  ABSORBANCE: 2.334
[2]; serum 7120
  ABSORBANCE: >
[2]; serum 7212
  ABSORBANCE: >
[2]; serum 7258*
  ABSORBANCE: >
[2]; serum 7297*
  ABSORBANCE: >
[2]; serum 7439
  ABSORBANCE: >
[2]; serum 7443
  ABSORBANCE: >
[2]; serum DUR*
  ABSORBANCE: >
[2]; serum ESS*
  ABSORBANCE: >
[2]; serum HAD
  ABSORBANCE: 0.518
[2]; serum VAU*
  ABSORBANCE: >
[2]; summary of Table IV
  immunoreactivity compared with the other peptides (in words): more immunoreactive than the VAU 22 AA peptide
